# From patent EP0633893B1, “17-SUBSTITUTED STEROIDS USEFUL IN CANCER TREATMENT” (priority 1992, dated 1993)
# Like-named read-outs stand apart in the source and are kept apart here.
# Tests used:
# [1] = test system: testosterone; experiment: In vivo endocrine test in mice: RIA of plasma testosterone; settings: 2 weeks, plasma 24 hours after last injection, mean ± standard error
# Procedure: Male HWT mice, 12 weeks old, were treated daily for 2 weeks, with 5 animals per treatment group. […] The test compounds were made up in 5% benzyl alcohol, 95% safflower oil, and were given i.p.. In addition to an untreated control group of animals, there was also a solvent control group which received the same volume of liquid as the test group (5ml/kg) but no test compound. All animals were sacrificed 24 hours after the last injection. Blood was collected by cardiac puncture into heparinized tubes, and the plasma used for RIA (radio immunoassay) of testosterone and luteinising hormone.
# [2] = test system: luteinising hormone; experiment: In vivo endocrine test in mice: RIA of plasma luteinising hormone; settings: 2 weeks, plasma 24 hours after last injection, mean ± standard error
# Procedure: (§1) Male HWT mice, 12 weeks old, were treated daily for 2 weeks, with 5 animals per treatment group. The test compounds were the compound of Examples 1 and 4 (as representative of compounds of the invention having the pregenolone-like and progesterone-like skeletons respectively). Ketoconazole was also tested at three different doses. The test compounds were made up in 5% benzyl alcohol, 95% safflower oil, and were given i.p.. In addition to an untreated control group of animals, there was also a solvent control group which received the same volume of liquid as the test group (5ml/kg) but no test compound. All animals were sacrificed 24 hours after the last injection. Blood was collected by cardiac puncture into heparinized tubes, and the plasma used for RIA (radio immunoassay) of testosterone and luteinising hormone. The following organs were removed and weighed: adrenals, prostate, seminal vesicles, testes, kidneys. There was no significant body weight loss in any group of mice during the experiments.
# [3] = test system: Male HWT mice; settings: mouse, in vivo; for Post mortem examination: appearance of organs / Post mortem examination: deposits: ip
# Procedure: as §1
# In Ketoconazole-treated animals, adhesions were found in 2/5,2/5,4/5 of the low/middle/top dose groups. […] The livers were brown in the middle/top dose groups.
# [4] = molecular target: T1, aromatase (Homo sapiens, UniProt P11511); experiment: biochemical
# T1 sequence (P11511 1-503): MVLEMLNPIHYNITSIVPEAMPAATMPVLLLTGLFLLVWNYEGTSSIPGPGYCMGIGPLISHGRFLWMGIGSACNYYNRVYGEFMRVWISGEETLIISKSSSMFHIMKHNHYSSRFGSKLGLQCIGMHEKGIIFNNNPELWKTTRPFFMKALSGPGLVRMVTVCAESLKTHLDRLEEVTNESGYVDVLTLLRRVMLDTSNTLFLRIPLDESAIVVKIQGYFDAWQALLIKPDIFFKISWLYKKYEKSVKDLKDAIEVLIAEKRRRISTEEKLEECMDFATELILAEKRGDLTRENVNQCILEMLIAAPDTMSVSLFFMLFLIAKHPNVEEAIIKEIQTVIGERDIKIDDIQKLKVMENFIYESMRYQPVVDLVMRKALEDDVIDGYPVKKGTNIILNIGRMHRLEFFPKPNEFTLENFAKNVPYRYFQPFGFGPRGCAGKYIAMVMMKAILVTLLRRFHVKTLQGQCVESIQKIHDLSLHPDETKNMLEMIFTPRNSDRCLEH
# Procedure: Aromatase activity was determined by the method of A. B. Foster et al., J. Med. Chem. 26, 50-54 (1983), using human placental microsomes.
# [5] = test system: Male HWT mice; assay type: in vivo; settings: daily for 2 weeks, mean ± standard error
# Procedure: as §1
# [6] = molecular target: T2, C17-C20 lyase (Homo sapiens, UniProt P05093); experiment: Determination of C17-C20 lyase (human testicular microsomes, 3H-17α-hydroxyprogesterone substrate, HPLC); assay type: biochemical
# T2 construct: The microsomal pellet was then resuspended in 50mM sodium phosphate pH 7.4/glycerol (3/1 v/v) and stored in aliquots in liquid nitrogen; from tissue; host or cells: human testis microsomes
# T2 sequence (P05093 1-508): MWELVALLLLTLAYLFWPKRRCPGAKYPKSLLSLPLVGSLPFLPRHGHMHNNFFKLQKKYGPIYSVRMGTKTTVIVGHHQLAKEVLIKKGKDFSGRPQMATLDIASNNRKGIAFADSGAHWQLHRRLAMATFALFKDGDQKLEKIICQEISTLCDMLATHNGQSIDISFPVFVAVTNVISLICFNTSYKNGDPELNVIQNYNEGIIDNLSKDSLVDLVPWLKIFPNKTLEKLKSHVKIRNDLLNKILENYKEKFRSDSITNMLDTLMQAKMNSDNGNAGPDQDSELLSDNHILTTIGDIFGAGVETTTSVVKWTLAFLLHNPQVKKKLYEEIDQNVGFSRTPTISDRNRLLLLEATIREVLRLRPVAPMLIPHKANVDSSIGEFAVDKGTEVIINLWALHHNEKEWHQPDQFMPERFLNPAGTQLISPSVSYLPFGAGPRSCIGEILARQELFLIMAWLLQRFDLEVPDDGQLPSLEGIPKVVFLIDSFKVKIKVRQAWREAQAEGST
# Procedure: Human testes were obtained from previously untreated patients undergoing orchidectomy for prostatic cancer. The testes were decapsulated and stored in liquid nitrogen until use. […] The material was then thawed, finely chopped, and homogenised in 0.25M sucrose (5ml/g wet weight) using a Potter homogeniser. The homogenate was centrifuged at 12000g for 30 min, and then the microsomes were pelleted by spinning the supernatant at 100,000g for lhr. The pellet was washed by being resuspended in 0.25M sucrose and repelleted. The microsomal pellet was then resuspended in 50mM sodium phosphate pH 7.4/glycerol (3/1 v/v) and stored in aliquots in liquid nitrogen.
# The mixture was the same as described above for the 17«-hydroxylase except that the substrate was ^3H-17α-hydroxyprogesterone.
# The HPLC separation used for the lyase involved a mini-re-column "Uptight Guard Column" packed with PELL-ODS (pellicular octadecyl silica) and a 10cm. main column "Apex C18" column packed with 5µ APEX-CAT silica. The eluant was 38:12:50 methanol:acetonitrile:water flowing at lml/min. The effluent was mixed 1:1 with Ecoscint A containing 5% methanol and 5% acetonitrile and the radioactivity was measured directly by a Berthold LB506C radiochemical detector. The lyase activity was measured as the production of androstenedione and testosterone.
# The enzyme activity was measured in the presence of at least 4 concentrations of each compound. The data were for the 4-pyridyl and 2-picolyl compounds of Table 1 fitted by linear regression to the Dixon equation (M. Dixon, E.C. Webb, Enzymes, 2nd ed., Academic Press, New York, 1964). Data for all the other compounds were fitted by non-linear regression to the median effect equation of Chou, J. Theoret.
# [7] = molecular target: T3, 17α-hydroxylase (Homo sapiens, UniProt P05093); experiment: Determination of 17α-hydroxylase (human testicular microsomes, 3H-progesterone substrate, HPLC); assay type: biochemical
# T3 construct: The microsomal pellet was then resuspended in 50mM sodium phosphate pH 7.4/glycerol (3/1 v/v) and stored in aliquots in liquid nitrogen; from tissue; host or cells: human testis microsomes
# T3 sequence (P05093 1-508): T2 sequence (P05093 1-508)
# Procedure: Human testes were obtained from previously untreated patients undergoing orchidectomy for prostatic cancer. The testes were decapsulated and stored in liquid nitrogen until use. A microsomal preparation was prepared essentially as described by S. E. Barrie et al., J. Steroid Biochem. 6, 1191-5, (1989). The material was then thawed, finely chopped, and homogenised in 0.25M sucrose (5ml/g wet weight) using a Potter homogeniser. The homogenate was centrifuged at 12000g for 30 min, and then the microsomes were pelleted by spinning the supernatant at 100,000g for lhr. The pellet was washed by being resuspended in 0.25M sucrose and repelleted. The microsomal pellet was then resuspended in 50mM sodium phosphate pH 7.4/glycerol (3/1 v/v) and stored in aliquots in liquid nitrogen.
# The basic assay mixture was EDTA (0.2mM), dithiothreitol (DTT; 0.1mM), NADPH (0.25mM), glucose 6-phosphate dehydrogenase (G6PDH; 6.25 µg/ml), MgCl2 (1mM), glucose 6-phosphate (G6P; 10mM) and the substrate, ^3H-progesterone (3µM) in sodium phosphate (50mm), pH 7.4. The compounds under test were dissolved in 50% DMSO and the final concentrations of ethanol and DMSO were 1% each. The assay reaction was carried out for 1 hour and was terminated by the addition of 2 vols. of methanol-acetonitrile (2:1) containing approx. 100µM unlabelled progesterone, 17α-hydroxyprogesterone, androstenedione, testosterone, and 16α-hydroxyprogesterone.
# The separation of the steroids by HPLC was carried out using an "Uptight" guard column packed with 40-63µm Nucleosil C18 and a 10cm main column packed with 5µm Nucleosil C18 and 60% methanol as eluant. The radioactivity in the peaks of interest was monitored on-line by mixing the HPLC effluent 1:1 with Ecoscint A (National Diagnostics) scintillation fluid, containing 25% acetonitrile, and passing the mixture through a Berthold LB506C radiochemical monitor. The hydroxylase activity was measured as the production of 17α-hydroxyprogesterone, androstenedione and testosterone.
# The enzyme activity was measured in the presence of at least 4 concentrations of each compound.
# [8] = approx. 4nM enzyme, read-out: IC50 (µM) Lyase
# [9] = approx. 4nM enzyme, read-out: IC50 (µM) Hydroxylase
# [10] = 25nM lyase, read-out: IC50 (µM) Lyase
# [11] = 10nM hydroxylase, read-out: IC50 (µM) Hydroylase
smiles,measurement,setting,value
"CC(=O)O[C@H]1CC[C@@]2(C)C(=CC[C@@H]3[C@@H]2CC[C@]2(C)C(c4cccnc4)=CC[C@@H]32)C1 [Ex. 1, 3β-Acetoxy-17-(3-pyridyl)androsta-5,16-diene]",Testosterone,[1]; 0.02Mmol/Kg/Day i.p.,2.7 ± 0.5 nM
same,Testosterone,[1]; 0.5Mmol/Kg/Day i.p.,0.1 ± 0.0 nM
same,Testosterone,[1]; i.p.,0.2 ± 0.1 nM
same,LH,[2]; 0.02Mmol/Kg/Day i.p.,3.4 ± 0.5 ng/mL
same,LH,[2]; 0.1Mmol/Kg/Day i.p.,2.55 ± 0.45 ng/mL
same,LH,[2]; 0.5Mmol/Kg/Day i.p.,2.25 ± 0.67 ng/mL
same,Post mortem examination: appearance of organs,[3],all organs looked normal
same,Post mortem examination: deposits,[3],oil/white deposits i.p.
same,IC50,[4],> 20000 nM
same,Mean weight Kidneys,[5]; 0.02 mmol/kg/day i.p.,604 ± 24 mg
same,Mean weight Prostate,[5]; 0.02 mmol/kg/day i.p.,8.0 ± 0.6 mg
same,Mean weight Seminal Vesicles,[5]; 0.02 mmol/kg/day i.p.,136 ± 4 mg
same,Mean weight Testes,[5]; 0.02 mmol/kg/day i.p.,134 ± 4 mg
same,Mean weight Kidneys,[5]; 0.1 mmol/kg/day i.p.,500 ± 8 mg
same,Mean weight Prostate,[5]; 0.1 mmol/kg/day i.p.,5.3 ± 0.3 mg
same,Mean weight Seminal Vesicles,[5]; 0.1 mmol/kg/day i.p.,51 ± 6 mg
same,Mean weight Testes,[5]; 0.1 mmol/kg/day i.p.,95 ± 3 mg
same,Mean weight Kidneys,[5]; 0.5 mmol/kg/day i.p.,449 ± 12 mg
same,Mean weight Prostate,[5]; 0.5 mmol/kg/day i.p.,5.6 ± 0.6 mg
same,Mean weight Seminal Vesicles,[5]; 0.5 mmol/kg/day i.p.,25 ± 2 mg
same,Mean weight Testes,[5]; 0.5 mmol/kg/day i.p.,56 ± 2 mg
"C[C@]12CC[C@H](O)CC1=CC[C@@H]1[C@@H]2CC[C@]2(C)C(c3cccnc3)=CC[C@@H]12 [Ex. 2, 17-(3-Pyridyl)androsta-5,16-dien-3β-ol]",IC50,[6]; [8],0.0029 µM
same,IC50,[7]; [9],0.004 µM
"C[C@]12CCC=CC1=CC[C@@H]1[C@@H]2CC[C@]2(C)C(c3cccnc3)=CC[C@@H]12 [Ex. 3, 17-(3-Pyridyl)androsta-3,5,16-triene]",IC50,[6]; [8],0.0056 µM
same,IC50,[7]; [9],0.0125 µM
"C[C@]12CCC(=O)C=C1CC[C@@H]1[C@@H]2CC[C@]2(C)C(c3cccnc3)=CC[C@@H]12 [Ex. 4, 17-(3-Pyridyl)androsta-4,16-dien-3-one]",Testosterone,[1]; 0.02Mmol/Kg/Day i.p.,4.5 ± 0.3 nM
same,Testosterone,[1]; 0.5Mmol/Kg/Day i.p.,0.4 ± 0.1 nM
same,Testosterone,[1]; i.p.,3.5 ± 1.0 nM
same,IC50,[6]; [8],0.0021 µM
same,IC50,[7]; [9],0.0028 µM
same,Post mortem examination: appearance of organs,[3],all organs looked normal
same,Post mortem examination: deposits,[3],white deposits throughout the abdomen
same,IC50,[4],1000 nM
same,Mean weight Kidneys,[5]; 0.02 mmol/kg/day i.p.,599 ± 29 mg
same,Mean weight Prostate,[5]; 0.02 mmol/kg/day i.p.,5.9 ± 0.8 mg
same,Mean weight Seminal Vesicles,[5]; 0.02 mmol/kg/day i.p.,108 ± 4 mg
same,Mean weight Testes,[5]; 0.02 mmol/kg/day i.p.,117 ± 9 mg
same,Mean weight Kidneys,[5]; 0.1 mmol/kg/day i.p.,549 ± 28 mg
same,Mean weight Prostate,[5]; 0.1 mmol/kg/day i.p.,6.4 ± 0.5 mg
same,Mean weight Seminal Vesicles,[5]; 0.1 mmol/kg/day i.p.,61 ± 9 mg
same,Mean weight Testes,[5]; 0.1 mmol/kg/day i.p.,105 ± 5 mg
same,Mean weight Kidneys,[5]; 0.5 mmol/kg/day i.p.,468 ± 15 mg
same,Mean weight Prostate,[5]; 0.5 mmol/kg/day i.p.,4.1 ± 0.5 mg
same,Mean weight Seminal Vesicles,[5]; 0.5 mmol/kg/day i.p.,25 ± 1 mg
same,Mean weight Testes,[5]; 0.5 mmol/kg/day i.p.,59 ± 2 mg
"C[C@]12CC[C@@H]3c4ccc(O)cc4CC[C@H]3[C@@H]1CC=C2c1cccnc1 [Ex. 6, 17-(3-Pyridyl)estra-1,3,5[10],16-tetraen-3-ol]",IC50,[6]; [8],0.0018 µM
same,IC50,[7]; [9],0.0026 µM
"C[C@]12CC[C@@H](O)C[C@@H]1CC[C@@H]1[C@@H]2CC[C@]2(C)C(c3cccnc3)=CC[C@@H]12 [Ex. 8, 17-(3-Pyridyl)-5α-androst-16-en-3α-ol]",IC50,[6],0.0025 µM
same,IC50,[7],0.0043 µM
"C[C@]12CCC(=O)C[C@@H]1CC[C@@H]1[C@@H]2CC[C@]2(C)C(c3cccnc3)=CC[C@@H]12 [Ex. 9, 17-(3-Pyridyl)-5α-androst-16-en-3-one]",IC50,[6],0.003 µM
"C[C@]12CCC(=O)C=C1CC[C@@H]1[C@@H]2C(=O)C[C@]2(C)C(c3cccnc3)=CC[C@@H]12 [Ex. 10, 17-(3-Pyridyl)androsta-4,16-diene-3,11-dione]",IC50,[6]; [8],0.0025 µM
same,IC50,[7]; [9],0.0091 µM
"C[C@]12CCC(=O)C=C1[C@H](F)C[C@@H]1[C@@H]2CC[C@]2(C)C(c3cccnc3)=CC[C@@H]12 [Ex. 12, 6β-Fluoro-17-(3-pyridyl)androsta-4,16-dien-3-one]",IC50,[6]; [8],0.0022 µM
same,IC50,[7]; [9],0.0033 µM
"C[C@]12CCC(=O)C=C1[C@@H](F)C[C@@H]1[C@@H]2CC[C@]2(C)C(c3cccnc3)=CC[C@@H]12 [Ex. 13, 6α-Fluoro-17-(3-pyridyl)androsta-4,16-dien-3-one]",IC50,[6]; [8],0.0032 µM
same,IC50,[7]; [9],0.0053 µM
"C[C@]12CC[C@H](O)CC1=CC[C@@H]1[C@@H]2CC[C@]2(C)C(c3ccccn3)=CC[C@@H]12 [Example 2-Pyridyl, reference compound]",IC50,[6],0.13 µM
same,IC50,[7],0.32 µM
"C[C@]12CC[C@H](O)CC1=CC[C@@H]1[C@@H]2CC[C@]2(C)C(Cc3ccccn3)=CC[C@@H]12 [Example 2-picolyl, reference compound]",IC50,[6]; [10],> 10 µM
same,IC50,[7]; [11],> 10 µM
"C[C@]12CC[C@H](O)CC1=CC[C@@H]1[C@@H]2CC[C@]2(C)C(c3ccncc3)=CC[C@@H]12 [Example 4-pyridyl, reference compound]",IC50,[6]; [10],2 µM
same,IC50,[7]; [11],5 µM
"CC(=O)N1CCN(c2ccc(OCC3COC(Cn4ccnc4)(c4ccc(Cl)cc4Cl)O3)cc2)CC1 (stereo not drawn) [Ketoconazole, reference compound]",LH,[2]; 0.1Mmol/Kg/Day i.p.,0.39 ± 0.14 ng/mL
same,LH,[2]; 0.225Mmol/Kg/Day i.p.,0.75 ± 0.02 ng/mL
same,LH,[2]; 0.5Mmol/Kg/Day i.p.,0.76 ± 0.03 ng/mL
same,Post mortem examination: livers,[3],brown
same,Mean weight Kidneys,[5]; 0.01mmol/kg/day i.p.,637 ± 22 mg
same,Mean weight Prostate,[5]; 0.01mmol/kg/day i.p.,9.1 ± 0.8 mg
same,Mean weight Seminal Vesicles,[5]; 0.01mmol/kg/day i.p.,235 ± 18 mg
same,Mean weight Testes,[5]; 0.01mmol/kg/day i.p.,141 ± 5 mg
same,Mean weight Kidneys,[5]; 0.225 mmol/kg/day i.p.,574 ± 23 mg
same,Mean weight Prostate,[5]; 0.225 mmol/kg/day i.p.,10.8 ± 1.4 mg
same,Mean weight Seminal Vesicles,[5]; 0.225 mmol/kg/day i.p.,171 ± 5 mg
same,Mean weight Testes,[5]; 0.225 mmol/kg/day i.p.,127 ± 7 mg
same,Mean weight Kidneys,[5]; 0.5 mmol/kg/day i.p.,710 ± 30 mg
same,Mean weight Prostate,[5]; 0.5 mmol/kg/day i.p.,9.3 ± 0.9 mg
same,Mean weight Seminal Vesicles,[5]; 0.5 mmol/kg/day i.p.,179 ± 20 mg
same,Mean weight Testes,[5]; 0.5 mmol/kg/day i.p.,133 ± 6 mg
